test: Human HepG2 cell viability assay in 384 well format; type: toxicity, cell-based; design: dose 125 nL, time 70.5 hour; cytotoxicity at 70.5 h: concentration not given beside the values; conditions: HepG2 cells, read-out: Inhibition

| Compound | cytotoxicity at 70.5 h |
| --- | --- |
| CC(C)c1nnc(NC(=O)CSCc2cc(=O)n3ccccc3n2)s1 | -4.94% |
| CN(C)C(=O)N1CCn2nc(CNC(=O)CCC(F)(F)F)cc2C1 | -3.05% |
| CCc1[nH]c2c(CNC(=O)[C@@H]3CCCN3C)cc(C)cc2c1C | 6.71% |
| Cc1nc(NCCN2CCCC2=O)cc(C2CN(C)CCO2)n1 (stereo not drawn) | 1.86% |
| Cc1ccn(C)c(=O)c1NC(=O)N(C)Cc1cccc(OC(C)C)c1 | 18.1% |
| CCOc1ccc2ccccc2c1CNCC1CCNCC1 | 9.2% |
| CCCOC1CCCN(Cc2nc(-c3ccc(F)cc3F)oc2C)C1 (stereo not drawn) | -5.84% |
| COCc1ncc(CN2CCC(Oc3ccc(OC)cc3)CC2)cn1 | -20.2% |
| COCCCNC(=O)COc1ccccc1C(F)(F)F | -5.58% |
| CC(C)Cn1ncc(C(=O)NS(=O)(=O)C2CCCC2)c1C1CC1 | -8.4% |
| CC(C)(C)C(=O)N1C[C@@H]2COC[C@]2(c2nnc(C3CC3)o2)C1 | -8.33% |
| CCc1nc(C(=O)N2CCN(C)CC2)nn1-c1ccccc1Cl | 16.1% |
| Cc1nc(CN(C)c2nc3c(cnn3C(C)(C)C)c(=O)[nH]2)cs1 | 8.98% |
| CNc1cc(C)nc(C2CN(Cc3ccc(Cl)cn3)CCO2)c1 (stereo not drawn) | -5.55% |
| COc1ccc(N2CCC(NCc3csc(C(C)C)n3)CC2)cc1 | 4.75% |
| Cc1nc2n(n1)CC(NCc1nc(-c3cccnc3)no1)CC2 (stereo not drawn) | -7.76% |
| COc1cccc(-n2nnc(C(=O)N3CCCC3)c2C)c1 | -13.2% |
| CCC(NC1CCN(S(C)(=O)=O)CC1)c1cccs1 (stereo not drawn) | -15.6% |
| Cc1ccc(N2CCCC3(CCN(C(=O)NC4CCCC4)C3)C2)nn1 (stereo not drawn) | -12.8% |
| COc1ccccc1CN1C(=O)O[C@@H]2CN(c3nc(C)cc(C)n3)C[C@@H]21 | -3.9% |
| O=C(Cn1nc2c(cc1=O)CSCC2)N[C@@H](Cc1ccccc1)C(=O)O | -5.32% |
| CCc1ccc(CN2CCc3ncnc(-c4cccnc4)c3CC2)o1 | -6.08% |
| CCn1ccnc1CN1CCN(C(C)C)CC1C (stereo not drawn) | -3.75% |

| Compound | cytotoxicity at 70.5 h |
| --- | --- |
| Cc1cccc(CN2CCN3C[C@H](Oc4cncnc4)C[C@H]3C2)n1 | -0.54% |
| O=C(O)c1ccc(CN2CCC(c3ccnc4ccnn34)CC2)cc1 | -12% |
| COc1cccc(S(=O)(=O)N2CCCCC2CCN2CCCC2=O)c1 (stereo not drawn) | -7.04% |
| CC(CO)(NC(=O)NCCc1ccc(Br)s1)C1CC1 (stereo not drawn) | -11% |
| Cc1nc(NC(=O)C(C)S(C)(=O)=O)sc1Cc1ccc(F)cc1 (stereo not drawn) | 7.99% |
| O=c1[nH]ccn1CCCN1CC=C(c2cnn(-c3ccccc3)c2)CC1 | -2.11% |
| COc1ccc2c(ccn2CCC(=O)N[C@H](C(=O)O)C(C)C)c1 | -8.62% |
| COc1cc2cc(C)c(SCCN3CCCC3)nc2cc1OC | -6.08% |
| CCOCCn1nc(C)cc1C(=O)N1CCN(C(C)C)C(CC)C1 (stereo not drawn) | -8.86% |
| COc1ccc2c(c1)C(=O)NC1(CC2)CCN(Cc2ccncc2)C1 (stereo not drawn) | -0.942% |
| Cc1nc(C2CCCN(C(=O)c3cccc4c3OCO4)C2)sc1C (stereo not drawn) | -2.18% |
| Cc1oc(-c2ccsc2)nc1CC(=O)NCCS(C)(=O)=O | -12.9% |
| CN(Cc1ccncc1)Cc1cnn(-c2ccc(F)cc2)c1 | -13.3% |
| CSc1nccc(N2CCC(=O)N(CC3CC3)C(C(C)C)C2)n1 (stereo not drawn) | 54.1% |
| CCN(CC1CCOC1)C(=O)NCc1nnc2n1CCCCC2 (stereo not drawn) | -7.23% |
| O=C1COC2(CCN(Cc3ccsc3)CC2)CN1 | -4.53% |
| O=S(=O)(CCSc1nccn1C1CC1)c1ccccc1 | -5.9% |
| CC(C)N1CCCC(Cc2nccnc2Cl)CC1 (stereo not drawn) | 0.246% |
| CS(=O)(=O)c1ccc2c(c1)N(C(=O)c1cccc(F)c1)CCC2 | -4.57% |
| Cn1cc(-c2ncnc3c2CCN(C(=O)c2cnccn2)CC3)cn1 | 1.04% |
| Cc1ccsc1CCNC(=O)CCC1CCCCN1C (stereo not drawn) | -15% |
| c1cc(-c2c[nH]c([C@@H]3COCCN3Cc3ncc[nH]3)n2)ccn1 | 1.76% |
| CC(=O)NCCNC(=O)N(C)Cc1ccc2c(c1)OCCO2 | -12% |

| Compound | cytotoxicity at 70.5 h |
| --- | --- |
| Cc1[nH]nc(CCC(=O)N2CCCC(OCc3cccnc3)C2)c1C (stereo not drawn) | 1.55% |
| CC(C)(C)NC(=O)NC(=O)CNC(C)(C)c1ccc2c(c1)OCCO2 | -16.2% |
| COc1cc2c(cc1CNC(=O)Cc1ccc(C)nc1)OC(C)C2 (stereo not drawn) | -6.1% |
| CCSCCN1CCCN(S(C)(=O)=O)CC1 | -2.21% |
| O=C(Cc1c(F)cccc1F)N1CCN(CC(=O)N2CCCC2)CC1 | -5.05% |
| Cc1nn(C)c(C)c1S(=O)(=O)N1C[C@@H]2C[C@@H](C)O[C@@H]2C1 | -9.76% |
| COc1ccccc1CCN(C)C(=O)NC(C)c1nncn1C (stereo not drawn) | -4.33% |
| COc1ccc(OC)c(C(O)CNC(=O)Nc2ccc(F)cc2F)c1 (stereo not drawn) | -6.18% |
| N#Cc1cccc(C(=O)N2CCC3(CCC(=O)N(C4CC4)C3)CC2)c1 | 6.81% |
| CCc1ccc(NC(=O)c2cnc(N3CCCC3)nc2C)cc1 | -2.19% |
| CCc1cccc(N2CCC(NC(=O)C3CCC3)CC2)c1 | -6.88% |
| CCc1ccc(NS(=O)(=O)c2cc3c(c(C(=O)O)c2)OCCO3)cc1 | -0.0386% |
| O=S(=O)(Cc1ccccc1)c1nnc(N2CCOCC2)s1 | -9.13% |
| Cc1nccc(CNC(=O)N(CCCO)C2CCc3ccccc32)n1 (stereo not drawn) | 30.5% |
| Cc1ncsc1CCC(=O)N1CCCC[C@H](N(C)C)C1 | 16.9% |
| O=C(NCc1cncc2c1CCN(C1CCOCC1)C2)c1ccno1 | -7.6% |
| COc1cccc(CN2CCN(c3cccc(C(C)C)n3)CC2)c1F | -0.272% |
| Cc1[nH]c2ccc(C(=O)N3C[C@@H](O)[C@H](N4CCOCC4)C3)cc2c1C | -1.3% |
| c1ncc2c(n1)CN(Cc1nc(-c3ccoc3)no1)CC2 | -7.49% |
| COCCc1noc(CN2CCCC2c2noc(C)n2)n1 (stereo not drawn) | -0.394% |
| Cc1nn(-c2ccc(C(=O)O)cc2)c2c1C(c1ccsc1)SCC(=O)N2 (stereo not drawn) | -1.43% |
| O=C(NCc1ccnc(OCC2CC2)c1)C1COc2ccccc2O1 (stereo not drawn) | 0.151% |
| CC(C)CC(=O)N1CCC2(CC1)OC(C(N)=O)Cn1ccnc12 (stereo not drawn) | -8.87% |

| Compound | cytotoxicity at 70.5 h |
| --- | --- |
| CN(C(=O)Cc1ccc2c(c1)OCCO2)C1CCCCC1 | -1.71% |
| CC(C)(C(=O)N1CCC(C(N)=O)C1)c1ccccc1F (stereo not drawn) | -2.99% |
| CCC(CC)N(Cc1ccc2c(c1)OCO2)C(=O)c1ccc(=O)n(C)c1 | -1.82% |
| COc1ccccc1CN1C(=O)O[C@@H]2CN(C(C)C)C[C@@H]21 | -0.224% |
| c1cncc(CN2CCCCC2c2ccc(Nc3cnccn3)nc2)c1 (stereo not drawn) | -5.32% |
| CN(C)C(=O)CN1CCC2(CCN(S(C)(=O)=O)CC2)C1=O | -0.161% |
| O=C(CC1=CSC2=NCCN12)N1CCCC(CCc2cccc(F)c2)C1 (stereo not drawn) | -13.5% |
| CCc1ccc(C2CC(=O)Nc3c2c(=O)n(C)c2ncnn32)cc1 (stereo not drawn) | -2.98% |
| Cn1ccnc1CN1CCCC2(CCN(CC3CCCO3)CC2)C1 (stereo not drawn) | 4.14% |
| Cn1cnc2cc(CCC(=O)Nc3n[nH]c(C4CC4)n3)ccc21 | 17.9% |
| O=C(C1=CCCCC1)N1CCO[C@H]2[C@H](Oc3ccccn3)CC[C@@H]21 | -9.07% |
| Cn1ccnc1CN1CCN(CCOc2ccccc2F)CC1 | -11.2% |
| CCS(=O)(=O)N1CCc2ncnc(C)c2CC1 | -1.43% |
| CO[C@@H]1CC[C@H]2[C@H]1OCCN2Cc1ccccn1 | 18.3% |
| CCSc1cc(C(=O)NCCc2nnc(-c3ccco3)[nH]2)ccn1 | 20.1% |
| CCc1nc(C2CCCN(C(=O)c3ccc(O)nc3)C2)no1 (stereo not drawn) | 3.29% |
| COc1cccc(CN2CCC3(CCN(c4ncc(C)cn4)CC3)C2)c1 | 1.49% |
| CC(C)n1cnc(C2CN(C)c3ccc(C(=O)NCC4CC4)cc32)n1 (stereo not drawn) | -3.88% |
| Cc1cc(C)c(C(=O)N(CCO)Cc2ccccc2F)c(=O)[nH]1 | -8.86% |
| COc1ccc(C2CCCN2C(=O)c2cc(C(C)C)on2)cc1 (stereo not drawn) | -9.05% |
| CCN1CCCC1(C)c1nc(C)cc(N)n1 (stereo not drawn) | -10.7% |
| CCCc1nc(CN(CC)Cc2ccc(O)c(C(=O)O)c2)no1 | -8.69% |
| COC(=O)N1CCc2ccccc2C1C(=O)NCC(F)(F)F (stereo not drawn) | -5.95% |

| Compound | cytotoxicity at 70.5 h |
| --- | --- |
| Cc1cccn2cc(CN3CCCC(O)C3)nc12 (stereo not drawn) | -2.97% |
| CCC1CCCCN1C(=O)Cn1nc(-c2ccc(C)o2)cc(N)c1=O (stereo not drawn) | -15.1% |
| CNC(=O)[C@@]12CCO[C@@H]1CCN(S(=O)(=O)c1cccnc1)C2 | -13.7% |
| CC(C)c1cc(C(=O)N2CCN(c3ncc4c(n3)CCOC4)CC2)on1 | 14.5% |
| Cc1cc(C)n(CC2CN(Cc3ccc4c(c3)OCCO4)CCO2)n1 (stereo not drawn) | -3.91% |
| c1nc2n(c1CN1CCCCC1)CCN(C1CCOC1)CC2 (stereo not drawn) | -3.62% |
| COCCNS(=O)(=O)c1cccc(CSC)c1 | 18.6% |
| CNc1nc(C)c(C(=O)N2CCCCC2CCc2ccccc2)s1 (stereo not drawn) | -5.18% |
| COc1ccc2c(c1)OCC(Cc1cnccc1N)C2 (stereo not drawn) | -3.68% |
| Cc1cc(C)c(N(CC(O)CNCc2ccccc2)S(C)(=O)=O)c(C)c1 (stereo not drawn) | -6.51% |
| OC(COCc1ccccc1)CSc1nnc2ccccn12 (stereo not drawn) | -5.06% |
| Cc1cc(N2CCC(N(C)C(=O)c3ccccc3F)CC2)nc(C)n1 | 15.8% |
| CCOC(=O)CN(CC(F)(F)F)C(=O)c1nc(C)n2ccccc12 | -15.3% |
| CCCn1[nH]cc/c1=N\C(=O)CN1CCn2c(nnc2C2CC2)C1 | 8.11% |
| Cn1cccc1C(=O)N[C@@H]1CN(S(C)(=O)=O)[C@@H]2COC[C@@H]21 | -8.37% |
| Cc1nnsc1CNC(=O)CSCc1ccccc1Cl | -7.02% |
| O=C(CCn1cncn1)NCCOc1cccc(Cl)c1 | -2.18% |
| O=S(=O)(c1ccc(F)cc1)N1CCCn2cnc(CN3CCCC3)c2C1 | 3.23% |
| CC(C(=O)NCC1CCCCC1)S(=O)(=O)Cc1csc(-c2cccs2)n1 (stereo not drawn) | -9.36% |
| Fc1cnc(N2CC[C@@H]3O[C@@H](COCc4ccccn4)CC[C@@H]32)nc1 | 7.99% |
| O=c1cc(CNS(=O)(=O)C2CC2)nc2n1CCCNC2 | -2.64% |

— ChEMBL document CHEMBL3507680, “University of Dundee, Gates Library screen for HepG2 cell viability”
